From patent publication US20250145633A1, “SUBSTITUTED FURANOPYRIMIDINE COMPOUNDS AS PDE1 INHIBITORS” (Dart NeuroScience, LLC, priority 2017, published 2025)

Target: human PDE1B enzyme (Homo sapiens (Human), UniProt Q01064)
Assay: IMAP TR-FRET PDE1B enzymatic assay
Format: biochemical
Conditions: negative log of half-maximal molar inhibitory concentration; 200 nM FAM-cAMP; values given as bins
How it was run: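 Full-length GST-tagged human PDE1B (250 pg/well) in IMAP BSA buffer with 10 U/ml calmodulin and 2.5 mM CaCl2; compound pre-incubated 5 min at room temperature, then 200 nM (final) FAM-cAMP for 30 min. IMAP binding reagent/Tb added, 1 h; TR-FRET 520/490 ratio read. IC50 from sigmoidal dose-response fit.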

| SMILES | PDE1b (pIC50) |
| --- | --- |
| Cc1oc2ncnc(NC3(C)CC3)c2c1C(=O)N1CCN(c2cccc(F)n2)CC1 [Example 154, 5-[4-(6-Fluoropyridin-2-yl)piperazine-1-carbonyl]-6-methyl-N-(1-methylcyclopropyl)furo[2,3-d]pyrimidin-4-amine] | >8 |
| COc1cccc(C2CCN(C(=O)c3c(C)oc4ncnc(NC5(C)CC5)c34)C2)n1 (stereo not drawn) [Example 367, 5-[3-(6-Methoxypyridin-2-yl)pyrrolidine-1-carbonyl]-6-methyl-N-(1-methylcyclopropyl)furo[2,3-d]pyrimidin-4-amine] | >8 |
| Cc1cccc(C2CCN(C(=O)c3c(C)oc4ncnc(NC5(C)CC5)c34)C2)c1 (stereo not drawn) [Example 395, 6-Methyl-N-(1-methylcyclopropyl)-5-[3-(3-methylphenyl)pyrrolidine-1-carbonyl]furo[2,3-d]pyrimidin-4-amine] | >8 |
| COc1ccc2oc(CNC(=O)c3c(C)oc4ncnc(NC5(C)CC5)c34)nc2c1 [Example 714, N-[(5-Methoxy-1,3-benzoxazol-2-yl)methyl]-6-methyl-4-[(1-methylcyclopropyl)amino]furo[2,3-d]pyrimidine-5-carboxamide] | >8 |
| Cc1oc2ncnc(NC3(C)CC3)c2c1C(=O)NCc1ccc(F)c(C#N)c1 [Example 88, N-[(3-Cyano-4-fluorophenyl)methyl]-6-methyl-4-[(1-methylcyclopropyl)amino]furo[2,3-d]pyrimidine-5-carboxamide] | >8 |
| COc1cnc(C2CCN(C(=O)c3c(C)oc4ncnc(NC5(C)CC5)c34)CC2)cn1 [Example 365, 5-[4-(5-Methoxypyrazin-2-yl)piperidine-1-carbonyl]-6-methyl-N-(1-methylcyclopropyl)furo[2,3-d]pyrimidin-4-amine] | >8 |
| Cc1oc2ncnc(NC3(C)CC3)c2c1C(=O)N1CCN(c2ccc(F)cn2)CC1 [Example 43, 5-[4-(5-Fluoropyridin-2-yl)piperazine-1-carbonyl]-6-methyl-N-(1-methylcyclopropyl)furo[2,3-d]pyrimidin-4-amine] | >8 |
| Cc1oc2ncnc(NC3(C)CC3)c2c1C(=O)N1CCc2ccc(OCF)cc2C1C (stereo not drawn) [Example 772, 5-[7-(Fluoromethoxy)-1-methyl-1,2,3,4-tetrahydroisoquinoline-2-carbonyl]-6-methyl-N-(1-methylcyclopropyl)furo[2,3-d]pyrimidin-4-amine] | >8 |

Same assay, conditions: negative log of half-maximal molar inhibitory concentration; 200 nM FAM-cAMP; values given as bins; read-out: PDE1b (pIC50) (converted)

| SMILES | IC50 [nM] |
| --- | --- |
| COc1cccc(CN(C)C(=O)c2c(C)oc3ncnc(NC4(C)CC4)c23)c1 [Example 203, N-[(3-Methoxyphenyl)methyl]-N,6-dimethyl-4-[(1-methylcyclopropyl)amino]furo[2,3-d]pyrimidine-5-carboxamide] | 10 to 100 |
| Cc1oc2ncnc(NC3(C)CC3)c2c1C(=O)NCCn1ccnc1 [Example 189, N-[2-(1H-Imidazol-1-yl)ethyl]-6-methyl-4-[(1-methylcyclopropyl)amino]furo[2,3-d]pyrimidine-5-carboxamide] | 100 to 1000 |
| COc1cnc(CNC(=O)c2c(C)oc3ncnc(NC4(C)CC4)c23)cn1 [Example 731, N-[(5-Methoxypyrazin-2-yl)methyl]-6-methyl-4-[(1-methylcyclopropyl)amino]furo[2,3-d]pyrimidine-5-carboxamide] | 10 to 100 |
| Cc1ccccc1NC(=O)c1c(C)oc2ncnc(NC3(C)CC3)c12 [Example 178, 6-Methyl-4-[(1-methylcyclopropyl)amino]-N-(2-methylphenyl)furo[2,3-d]pyrimidine-5-carboxamide] | 10 to 100 |
| Cc1oc2ncnc(NC3(C)CC3)c2c1C(=O)N1CC[C@@H]2CCCC[C@H]2C1 (stereo in doubt) [Example 271, 5-[(4aS,8aR)-Decahydroisoquinoline-2-carbonyl]-6-methyl-N-(1-methylcyclopropyl)furo[2,3-d]pyrimidin-4-amine] | 10 to 100 |
| Cc1oc2ncnc(NC3(C)CC3)c2c1C(=O)NCCN=S(C)(C)=O [Example 756, N-(2-{[Dimethyl(oxo)-λ^6-sulfanylidene]amino}ethyl)-6-methyl-4-[(1-methylcyclopropyl)amino]furo[2,3-d]pyrimidine-5-carboxamide] | 100 to 1000 |
| Cc1oc2ncnc(NC3(C)CC3)c2c1C(=O)N1CC(F)(c2ccccc2)C1 [Example 314, 5-(3-Fluoro-3-phenylazetidine-1-carbonyl)-6-methyl-N-(1-methylcyclopropyl)furo[2,3-d]pyrimidin-4-amine] | 10 to 100 |
| Cc1oc2ncnc(NC3(C)CC3)c2c1C(=O)NCc1cscn1 [Example 75, 6-Methyl-4-[(1-methylcyclopropyl)amino]-N-(1,3-thiazol-4-ylmethyl)furo[2,3-d]pyrimidine-5-carboxamide] | 10 to 100 |
| Cc1oc2ncnc(NC3(C)CC3)c2c1C(=O)N[C@H]1C[C@@H](F)C1 [Example 127, 6-Methyl-4-[(1-methylcyclopropyl)amino]-N-[(1S,3S)-3-fluorocyclobutyl]furo[2,3-d]pyrimidine-5-carboxamide] | 100 to 1000 |
| COCCN(Cc1cccc(OC)c1)C(=O)c1c(C)oc2ncnc(NC3(C)CC3)c12 [Example 580, N-(2-Methoxyethyl)-N-[(3-methoxyphenyl)methyl]-6-methyl-4-[(1-methylcyclopropyl)amino]furo[2,3-d]pyrimidine-5-carboxamide] | 10 to 100 |
| Cc1oc2ncnc(NC3(C)CC3)c2c1C(=O)Nc1cnc(C2CCOCC2)cn1 [Example 736, 6-Methyl-4-[(1-methylcyclopropyl)amino]-N-[5-(oxan-4-yl)pyrazin-2-yl]furo[2,3-d]pyrimidine-5-carboxamide] | 10 to 100 |
| Cc1oc2ncnc(NC3(C)CC3)c2c1C(=O)NC(C)C1(C)CC1 (stereo not drawn) [Example 402, 6-Methyl-4-[(1-methylcyclopropyl)amino]-N-[1-(1-methylcyclopropyl)ethyl]furo[2,3-d]pyrimidine-5-carboxamide] | 10 to 100 |
| Cc1oc2ncnc(NC3(C)CC3)c2c1C(=O)Nc1ccc(N2CCOCC2)cn1 [Example 46, 6-Methyl-4-[(1-methylcyclopropyl)amino]-N-[5-(morpholin-4-yl)pyridin-2-yl]furo[2,3-d]pyrimidine-5-carboxamide] | 100 to 1000 |
| COc1cccc(CNC(=O)c2c(C)oc3ncnc(NC4(C)CC4)c23)n1 [Example 53, N-[(6-Methoxypyridin-2-yl)methyl]-6-methyl-4-[(1-methylcyclopropyl)amino]furo[2,3-d]pyrimidine-5-carboxamide] | 10 to 100 |
| Cc1ncc(CNC(=O)c2c(C)oc3ncnc(NC4(C)CC4)c23)o1 [Example 744, 6-Methyl-N-[(2-methyl-1,3-oxazol-5-yl)methyl]-4-[(1-methylcyclopropyl)amino]furo[2,3-d]pyrimidine-5-carboxamide] | 10 to 100 |
| Cc1oc2ncnc(NC3(C)CC3)c2c1C(=O)N1CCc2c(C#N)ncnc2C1 [Example 24, 7-(6-Methyl-4-((1-methylcyclopropyl)amino)furo[2,3-d]pyrimidine-5-carbonyl)-5,6,7,8-tetrahydropyrido[3,4-d]pyrimidine-4-carbonitrile] | 100 to 1000 |
| Cc1oc2ncnc(NC3(C)CC3)c2c1C(=O)N1Cc2nc(C3CC3)[nH]c(=O)c2C1 [Example 681, 2-Cyclopropyl-6-{6-methyl-4-[(1-methylcyclopropyl)amino]furo[2,3-d]pyrimidine-5-carbonyl}-3H,4H,5H,6H,7H-pyrrolo[3,4-d]pyrimidin-4-one] | 100 to 1000 |
| Cc1oc2ncnc(NC3(C)CC3)c2c1C(=O)NC1CCN(c2ccccn2)C1 (stereo not drawn) [Example 669, 6-Methyl-4-[(1-methylcyclopropyl)amino]-N-[1-(pyridin-2-yl)pyrrolidin-3-yl]furo[2,3-d]pyrimidine-5-carboxamide] | 10 to 100 |
| Cc1oc2ncnc(NC3(C)CC3)c2c1C(=O)N1CCc2cc(Cl)ncc2C1 [Example 642, 5-(6-Chloro-1,2,3,4-tetrahydro-2,7-naphthyridine-2-carbonyl)-6-methyl-N-(1-methylcyclopropyl)furo[2,3-d]pyrimidin-4-amine] | 10 to 100 |
| Cc1nccc(N2CCC(NC(=O)c3c(C)oc4ncnc(NC5(C)CC5)c34)CC2)n1 [Example 670, 6-Methyl-4-[(1-methylcyclopropyl)amino]-N-[1-(2-methylpyrimidin-4-yl)piperidin-4-yl]furo[2,3-d]pyrimidine-5-carboxamide] | 100 to 1000 |
| Cc1oc2ncnc(NC3(C)CC3)c2c1C(=O)N1CC2C(C1)C2(C)C (stereo not drawn) [Example 278, 5-{6,6-Dimethyl-3-azabicyclo[3.1.0]hexane-3-carbonyl}-6-methyl-(1-methylcyclopropyl)furo[2,3-d]pyrimidin-4-amine] | 10 to 100 |
| COc1cnc(C2CCN(C(=O)c3c(C)oc4ncnc(NC5(C)CC5)c34)CC2)nc1C [Example 423, 5-[4-(5-Methoxy-4-methylpyrimidin-2-yl)piperidine-1-carbonyl]-6-methyl-N-(1-methylcyclopropyl)furo[2,3-d]pyrimidin-4-amine] | 10 to 100 |
| COc1ccc(-c2cnn(C(=O)c3c(C)oc4ncnc(NC5(C)CC5)c34)c2)cc1 [Example 406, 5-[4-(4-Methoxyphenyl)-1H-pyrazole-1-carbonyl]-6-methyl-N-(1-methylcyclopropyl)furo[2,3-d]pyrimidin-4-amine] | 100 to 1000 |
| Cc1oc2ncnc(NC3(C)CC3)c2c1C(=O)NC(C)c1ccccn1 (stereo not drawn) [Example 77, 6-Methyl-4-[(1-methylcyclopropyl)amino]-N-[1-(pyridin-2-yl)ethyl]furo[2,3-d]pyrimidine-5-carboxamide] | 10 to 100 |
| Cc1oc2ncnc(NC3(C)CC3)c2c1C(=O)NCc1ccnc(C(C)C)n1 [Example 644, 6-Methyl-4-[(1-methylcyclopropyl)amino]-N-{[2-(propan-2-yl)pyrimidin-4-yl]methyl}furo[2,3-d]pyrimidine-5-carboxamide] | 10 to 100 |
